Source: US20230255953A1, “USE OF ROLUPERIDONE IN PREVENTING RELAPSE IN SCHIZOPHRENIA PATIENTS” (Minerva Neurosciences, Inc., priority 2022, published 2023)

System: patients with negative symptoms of schizophrenia
Assay: Integrated analysis (pooled ITT): CGI-S and CGI-I
Type: in vivo, human
Conditions: for CGI-I Score, Difference (95% CI) in LS mean (vs placebo) / CGI-I Score, LS mean (SE) / CGI-I Score, Mean (SD) / CGI-I Score, Median / CGI-S Score change from Baseline, LS mean (SE) / CGI-S Score change from Baseline, Mean (SD) / CGI-S Score change from Baseline, Median / CGI-S Score, Difference (95% CI) in LS mean (vs placebo): DB; for CGI-I Score, Difference (95% CI) in LS mean (vs placebo) / CGI-I Score, LS mean (SE) / CGI-I Score, Mean (SD) / CGI-I Score, Median / CGI-S Score change from Baseline, LS mean (SE) / CGI-S Score change from Baseline, Mean (SD) / CGI-S Score change from Baseline, Median / CGI-S Score, Difference (95% CI) in LS mean (vs placebo) / CGI-I score, LS mean compared with placebo / CGI-S score, LS mean change from Baseline compared with placebo: pooled ITT; for Clinical Global Impression of Severity, Change from Baseline (LS Means [SEM]) / Clinical Global Impression of Improvement (LS Means [SEM]): ITT; for Clinical Global Impression of Improvement (LS Means [SEM]): observed data, MMRM with Baseline CGI-S as covariate
Source text: The primary integrated analysis of the efficacy of Roluperidone compared with placebo for the treatment of negative symptoms of schizophrenia is based on the change from Baseline in the PANSS Marder's negative symptoms factor score (in this document referred to as NSFS) to Week 12. Efficacy is also supported by the analysis of change from Baseline in the PSP Total score and the CGI-S to Week 12.
The CGI-S is a clinician-rated scale that is designed to rate the severity of the patient's illness at the time of assessment, including knowledge of the patient's history, psychosocial circumstances, symptoms, behavior, and the impact of the symptoms on the patient's ability to function relative to the clinician's past experience with patients who have the same diagnosis and similar improvement with treatment. Considering total clinical experience, a patient is assessed on severity of mental illness at the time of rating, where 1=normal (not at all ill); 2=borderline mentally ill; 3=mildly ill; 4=moderately ill; 5=markedly ill; 6=severely ill; or 7=extremely ill.
The Efficacy data from Study Nos. 1 and 2 were pooled. The majority of patients in the pooled ITT population completed the DB period (502 patients overall, 66.3%), with similar rates in each treatment group (placebo: 69.8%, 32 mg Roluperidone: 65.3%, and 64 mg Roluperidone: 63.8%) (Table 12). The majority (62.7%) of those who completed the DB period entered the OL period. The most common reason for discontinuation during the DB period among patients overall was withdrawal of consent (15.6%), followed by adverse events (7.3%) and lack of efficacy (5.4%) (Table 12). […] Approximately twice as many patients in the Roluperidone groups (32 mg: 8.5%; 64 mg: 9.1%) discontinued due to adverse events compared with patients in the placebo group (4.3%). More patients in the placebo group discontinued due to lack of efficacy (6.7%) than in the Roluperidone groups (32 mg: 4.4%; 64 mg: 5.1%). The low number of patients who discontinued due to lack of efficacy or withdrawal of consent probably reflects a low level of worsening of positive symptoms.
The integrated analysis supporting the efficacy of Roluperidone as a treatment for the negative symptoms of schizophrenia in adults is presented below.

For “1H-Isoindol-1-one,2-[ [1-[2-(4-fluorophenyl)-2-oxoethyl]-4-piperidinyl]methyl]-2,3-dihydro-, hydrochloride, hydrate (1:1:2) [Roluperidone]”, the “CGI-I Score, Difference (95% CI) in LS mean (vs placebo)” value (“CGI-I Score, Difference (95% CI)” for short) (32 mg, Week 2) was 0.0, the “CGI-I Score, LS mean (SE)” value (32 mg, Week 2) was 3.9 (0.05) and the “CGI-I Score, Mean (SD)” value (32 mg, Week 2) was 3.9 (0.68). The “CGI-I Score, Median” value (32 mg, Week 2) was 4.0, the “CGI-S Score change from Baseline, LS mean (SE)” value (“CGI-S Score change … (SE)” below) (32 mg, Week 2) was −0.1 (0.04) and the “CGI-S Score change from Baseline, Mean (SD)” value (“CGI-S Score change … (SD)” for short) (32 mg, Week 2) was −0.1 (0.47). For the same substance, the “CGI-S Score change from Baseline, Median” value (32 mg, Week 2) was 0.0, the “CGI-S Score, Difference (95% CI) in LS mean (vs placebo)” value (shortened to “CGI-S Score, Difference (95% CI)”) (32 mg, Week 2) was 0.0 and the “CGI-I Score, Difference (95% CI)” value (32 mg, Week 4) was −0.2. The “CGI-I Score, LS mean (SE)” value (32 mg, Week 4) was 3.6 (0.05), the “CGI-I Score, Mean (SD)” value (32 mg, Week 4) was 3.6 (0.76) and the “CGI-I Score, Median” value (32 mg, Week 4) was 4.0. For the same substance, the “CGI-S Score change … (SE)” value (32 mg, Week 4) was −0.1 (0.03), the “CGI-S Score change … (SD)” value (32 mg, Week 4) was −0.1 (0.50) and the “CGI-S Score change from Baseline, Median” value (32 mg, Week 4) was 0.0. The “CGI-S Score, Difference (95% CI)” value (32 mg, Week 4) was −0.1, the “CGI-I Score, Difference (95% CI)” value (32 mg, Week 8) was −0.1 and the “CGI-I Score, LS mean (SE)” value (32 mg, Week 8) was 3.5 (0.06). The “CGI-I Score, Mean (SD)” value (32 mg, Week 8) was 3.4 (0.80), the “CGI-I Score, Median” value (32 mg, Week 8) was 3.0 and the “CGI-S Score change … (SE)” value (32 mg, Week 8) was −0.2 (0.04). For the same substance, the “CGI-S Score change … (SD)” value (32 mg, Week 8) was −0.3 (0.58), the “CGI-S Score change from Baseline, Median” value (32 mg, Week 8) was 0.0 and the “CGI-S Score, Difference (95% CI)” value (32 mg, Week 8) was −0.1. The “CGI-I Score, Difference (95% CI)” value (32 mg, Week 12) was −0.0, the “CGI-I Score, LS mean (SE)” value (32 mg, Week 12) was 3.5 (0.07) and the “CGI-I Score, Mean (SD)” value (32 mg, Week 12) was 3.4 (0.82). For the same substance, the “CGI-I Score, Median” value (32 mg, Week 12) was 3.0, the “CGI-S Score change … (SE)” value (32 mg, Week 12) was −0.3 (0.05) and the “CGI-S Score change … (SD)” value (32 mg, Week 12) was −0.4 (0.65). For the same substance, the “CGI-S Score change from Baseline, Median” value (32 mg, Week 12) was 0.0, the “CGI-S Score, Difference (95% CI)” value (32 mg, Week 12) was −0.1 and the “Clinical Global Impression of Severity, Change from Baseline (LS Means [SEM])” value (32 mg, Week 12) was −0.3 (0.05). For the same substance, the “Clinical Global Impression of Improvement (LS Means [SEM])” value (32 mg, Week 12) was 3.5 (0.07), the “CGI-I score, LS mean compared with placebo” value (32 mg, Week 12) was −0.0 and the “CGI-S score, LS mean change from Baseline compared with placebo” value (32 mg, Week 12) was −0.1. For the same substance, the “CGI-I Score, Difference (95% CI)” value (64 mg, Week 2) was 0.0, the “CGI-I Score, LS mean (SE)” value (64 mg, Week 2) was 3.8 (0.05) and the “CGI-I Score, Mean (SD)” value (64 mg, Week 2) was 3.8 (0.74). For the same substance, the “CGI-I Score, Median” value (64 mg, Week 2) was 4.0, the “CGI-S Score change … (SE)” value (64 mg, Week 2) was −0.1 (0.04) and the “CGI-S Score change … (SD)” value (64 mg, Week 2) was −0.1 (0.55). The “CGI-S Score change from Baseline, Median” value (64 mg, Week 2) was 0.0, the “CGI-S Score, Difference (95% CI)” value (64 mg, Week 2) was −0.0 and the “CGI-I Score, Difference (95% CI)” value (64 mg, Week 4) was −0.2. The “CGI-I Score, LS mean (SE)” value (64 mg, Week 4) was 3.6 (0.05), the “CGI-I Score, Mean (SD)” value (64 mg, Week 4) was 3.5 (0.72) and the “CGI-I Score, Median” value (64 mg, Week 4) was 4.0. The “CGI-S Score change … (SE)” value (64 mg, Week 4) was −0.2 (0.03), the “CGI-S Score change … (SD)” value (64 mg, Week 4) was −0.3 (0.56) and the “CGI-S Score change from Baseline, Median” value (64 mg, Week 4) was 0.0. For the same substance, the “CGI-S Score, Difference (95% CI)” value (64 mg, Week 4) was −0.2, the “CGI-I Score, Difference (95% CI)” value (64 mg, Week 8) was −0.2 and the “CGI-I Score, LS mean (SE)” value (64 mg, Week 8) was 3.4 (0.06). The “CGI-I Score, Mean (SD)” value (64 mg, Week 8) was 3.4 (0.81), the “CGI-I Score, Median” value (64 mg, Week 8) was 3.0 and the “CGI-S Score change … (SE)” value (64 mg, Week 8) was −0.3 (0.04). For the same substance, the “CGI-S Score change … (SD)” value (64 mg, Week 8) was −0.3 (0.66), the “CGI-S Score change from Baseline, Median” value (64 mg, Week 8) was 0.0 and the “CGI-S Score, Difference (95% CI)” value (64 mg, Week 8) was −0.2. For the same substance, the “CGI-I Score, Difference (95% CI)” value (64 mg, Week 12) was −0.2, the “CGI-I Score, LS mean (SE)” value (64 mg, Week 12) was 3.4 (0.07) and the “CGI-I Score, Mean (SD)” value (64 mg, Week 12) was 3.3 (0.85). The “CGI-I Score, Median” value (64 mg, Week 12) was 3.0, the “CGI-S Score change … (SE)” value (64 mg, Week 12) was −0.4 (0.05) and the “CGI-S Score change … (SD)” value (64 mg, Week 12) was −0.4 (0.69). The “CGI-S Score change from Baseline, Median” value (64 mg, Week 12) was 0.0, the “CGI-S Score, Difference (95% CI)” value (64 mg, Week 12) was −0.2 and the “Clinical Global Impression of Severity, Change from Baseline (LS Means [SEM])” value (64 mg, Week 12) was −0.4 (0.05). The “Clinical Global Impression of Improvement (LS Means [SEM])” value (64 mg, Week 12) was 3.4 (0.07), the “CGI-I score, LS mean compared with placebo” value (64 mg, Week 12) was −0.2 and the “CGI-S score, LS mean change from Baseline compared with placebo” value (64 mg, Week 12) was −0.2. The “CGI-I Score, Mean (SD)” value (Roluperidone Total, Week 2) was 3.9 (0.71), the “CGI-I Score, Median” value (Roluperidone Total, Week 2) was 4.0 and the “CGI-S Score change … (SD)” value (Roluperidone Total, Week 2) was −0.1 (0.51). The “CGI-S Score change from Baseline, Median” value (Roluperidone Total, Week 2) was 0.0, the “CGI-I Score, Mean (SD)” value (Roluperidone Total, Week 4) was 3.6 (0.74) and the “CGI-I Score, Median” value (Roluperidone Total, Week 4) was 4.0. The “CGI-S Score change … (SD)” value (Roluperidone Total, Week 4) was −0.2 (0.54), the “CGI-S Score change from Baseline, Median” value (Roluperidone Total, Week 4) was 0.0 and the “CGI-I Score, Mean (SD)” value (Roluperidone Total, Week 8) was 3.4 (0.81). For the same substance, the “CGI-I Score, Median” value (Roluperidone Total, Week 8) was 3.0, the “CGI-S Score change … (SD)” value (Roluperidone Total, Week 8) was −0.3 (0.62) and the “CGI-S Score change from Baseline, Median” value (Roluperidone Total, Week 8) was 0.0. For the same substance, the “CGI-I Score, Mean (SD)” value (Roluperidone Total, Week 12) was 3.3 (0.83), the “CGI-I Score, Median” value (Roluperidone Total, Week 12) was 3.0 and the “CGI-S Score change … (SD)” value (Roluperidone Total, Week 12) was −0.4 (0.67). For the same substance, the “CGI-S Score change from Baseline, Median” value (Roluperidone Total, Week 12) was 0.0.
